{
  "source": "patent US20210181179A1",
  "about": "“DIAGNOSIS AND TREATMENT OF IMMUNOTHERAPY-INDUCED NEUROTOXICITY” (MEMORIAL SLOAN KETTERING CANCER CENTER, priority 2018, published 2021)",
  "key": {"CCF-STTG1 (astrocytoma)": {"system": "CCF-STTG1 (astrocytoma)", "assay": "Net production of TRP metabolites in media samples, CCF-STTG1", "assay_type": "cell-based, human", "from_the_text": "(§1) Under physiological conditions in the brain, kynurenine metabolism is driven by microglial cells and astrocytes with preferential production of QUIN and KA respectively. […] This may have been due to T cells producing cytokines and/or intermediate metabolites that are further metabolized to QUIN by the cells. In order to identify specific factors that may lead to tryptophan-kynurenine pathway up-regulation for QUIN production, we tested a panel of cytokine and chemokines implicated in NTX and CRS. […] We initially evaluated the panel of the select factors individually (FIGS. 16 A-B). We selected several cytokines based on their effect on rate-limiting enzymes for QUIN production. These included IFNγ, TNF, […], CXCL10 and […]. These enzymes were selected based on their regulation of key enzymes, KMO and KYNU, which may lead to supraphysiological accumulation of QUIN. These factors were further evaluated, individually or in combination, on astrocytoma, microglial, and primary monocyte-derived macrophages for mRNA levels of kynurenine pathway enzymes and kynurenine metabolites production (FIG. 17)."}, "DOAY (medulloblastoma)": {"system": "DOAY (medulloblastoma)", "assay": "Net production of TRP metabolites in media samples, DOAY", "assay_type": "cell-based"}, "HCN2 (cortical neuron)": {"system": "HCN2 (cortical neuron)", "assay": "Net production of TRP metabolites in media samples, HCN2", "assay_type": "cell-based"}, "HMC3 (microglia)": {"system": "HMC3 (microglia)", "assay": "Net production of TRP metabolites in media samples, HMC3", "assay_type": "cell-based, human", "from_the_text": "as §1"}, "THP-1 (monocyte)": {"system": "THP-1 (monocyte)", "assay": "Net production of TRP metabolites in media samples, THP-1", "assay_type": "cell-based"}, "ALL3.1 (B-ALL)": {"system": "ALL3.1 (B-ALL)", "assay": "Net production of TRP metabolites in media samples, ALL3.1", "assay_type": "cell-based"}, "BV173 (B-ALL)": {"system": "BV173 (B-ALL)", "assay": "Net production of TRP metabolites in media samples, BV173", "assay_type": "cell-based"}, "CCRF-SB (B-ALL)": {"system": "CCRF-SB (B-ALL)", "assay": "Net production of TRP metabolites in media samples, CCRF-SB", "assay_type": "cell-based"}, "KARPAS231 (B-ALL)": {"system": "KARPAS231 (B-ALL)", "assay": "Net production of TRP metabolites in media samples, KARPAS231", "assay_type": "cell-based"}, "RS4; 11 (B-ALL)": {"system": "RS4; 11 (B-ALL)", "assay": "Net production of TRP metabolites in media samples, RS4; 11", "assay_type": "cell-based"}, "SUP-B15 (B-ALL)": {"system": "SUP-B15 (B-ALL)", "assay": "Net production of TRP metabolites in media samples, SUP-B15", "assay_type": "cell-based"}},
  "data": [
    {"substance": "IFNα", "values": [
      {"measurement": "Net production of TRP metabolites in media samples: 3-HK", "setting": "CCF-STTG1 (astrocytoma)", "value": "−13.12 ± 0.55"},
      {"measurement": "Net production of TRP metabolites in media samples: HAA", "setting": "CCF-STTG1 (astrocytoma)", "value": "10.54 ± 0.8"},
      {"measurement": "Net production of TRP metabolites in media samples: KA", "setting": "CCF-STTG1 (astrocytoma)", "value": "3.46 ± 1"},
      {"measurement": "Net production of TRP metabolites in media samples: KYN", "setting": "CCF-STTG1 (astrocytoma)", "value": "4734.38 ± 128"},
      {"measurement": "Net production of TRP metabolites in media samples: QUIN", "setting": "CCF-STTG1 (astrocytoma)", "value": "15.16 ± 5.5"},
      {"measurement": "Net production of TRP metabolites in media samples: 3-HK", "setting": "DOAY (medulloblastoma)", "value": "−13.46 ± 0.5"},
      {"measurement": "Net production of TRP metabolites in media samples: HAA", "setting": "DOAY (medulloblastoma)", "value": "11.62 ± 0.8"},
      {"measurement": "Net production of TRP metabolites in media samples: KA", "setting": "DOAY (medulloblastoma)", "value": "10.28 ± 3.2"},
      {"measurement": "Net production of TRP metabolites in media samples: KYN", "setting": "DOAY (medulloblastoma)", "value": "263.2 ± 20^"},
      {"measurement": "Net production of TRP metabolites in media samples: QUIN", "setting": "DOAY (medulloblastoma)", "value": "54.5 ± 21.8"},
      {"measurement": "Net production of TRP metabolites in media samples: 3-HK", "setting": "HCN2 (cortical neuron)", "value": "−4.46 ± 8.2"},
      {"measurement": "Net production of TRP metabolites in media samples: HAA", "setting": "HCN2 (cortical neuron)", "value": "5.38 ± 0.4"},
      {"measurement": "Net production of TRP metabolites in media samples: KA", "setting": "HCN2 (cortical neuron)", "value": "3.26 ± 6.1"},
      {"measurement": "Net production of TRP metabolites in media samples: KYN", "setting": "HCN2 (cortical neuron)", "value": "105.24 ± 37"},
      {"measurement": "Net production of TRP metabolites in media samples: QUIN", "setting": "HCN2 (cortical neuron)", "value": "13.26 ± 31.6"},
      {"measurement": "Net production of TRP metabolites in media samples: 3-HK", "setting": "HMC3 (microglia)", "value": "10.4 ± 18.6"},
      {"measurement": "Net production of TRP metabolites in media samples: HAA", "setting": "HMC3 (microglia)", "value": "0.56 ± 1.8"},
      {"measurement": "Net production of TRP metabolites in media samples: KA", "setting": "HMC3 (microglia)", "value": "4.48 ± 3.1"},
      {"measurement": "Net production of TRP metabolites in media samples: KYN", "setting": "HMC3 (microglia)", "value": "899.26 ± 383^"},
      {"measurement": "Net production of TRP metabolites in media samples: QUIN", "setting": "HMC3 (microglia)", "value": "42 ± 18.5"},
      {"measurement": "Net production of TRP metabolites in media samples: 3-HK", "setting": "THP-1 (monocyte)", "value": "0.62 ± 1.4"},
      {"measurement": "Net production of TRP metabolites in media samples: KA", "setting": "THP-1 (monocyte)", "value": "−8.98 ± 2.2"},
      {"measurement": "Net production of TRP metabolites in media samples: KYN", "setting": "THP-1 (monocyte)", "value": "101.24 ± 17.6"},
      {"measurement": "Net production of TRP metabolites in media samples: QUIN", "setting": "THP-1 (monocyte)", "value": "12.08 ± 32.1"},
      {"measurement": "Net production of TRP metabolites in media samples: 3-HK", "setting": "ALL3.1 (B-ALL)", "value": "6.76 ± 6.7"},
      {"measurement": "Net production of TRP metabolites in media samples: KA", "setting": "ALL3.1 (B-ALL)", "value": "−1.1 ± 3.4"},
      {"measurement": "Net production of TRP metabolites in media samples: KYN", "setting": "ALL3.1 (B-ALL)", "value": "49.4 ± 114.2"},
      {"measurement": "Net production of TRP metabolites in media samples: QUIN", "setting": "ALL3.1 (B-ALL)", "value": "−55.38 ± 21.2"},
      {"measurement": "Net production of TRP metabolites in media samples: 3-HK", "setting": "BV173 (B-ALL)", "value": "9.94 ± 8.7"},
      {"measurement": "Net production of TRP metabolites in media samples: KA", "setting": "BV173 (B-ALL)", "value": "−3.56 ± 4.1"},
      {"measurement": "Net production of TRP metabolites in media samples: KYN", "setting": "BV173 (B-ALL)", "value": "257.66 ± 175.9"},
      {"measurement": "Net production of TRP metabolites in media samples: QUIN", "setting": "BV173 (B-ALL)", "value": "6.36 ± 32.9"},
      {"measurement": "Net production of TRP metabolites in media samples: 3-HK", "setting": "CCRF-SB (B-ALL)", "value": "1.16 ± 6.5"},
      {"measurement": "Net production of TRP metabolites in media samples: HAA", "setting": "CCRF-SB (B-ALL)", "value": "5.3 ± 0.2"},
      {"measurement": "Net production of TRP metabolites in media samples: KA", "setting": "CCRF-SB (B-ALL)", "value": "−6.78 ± 4^"},
      {"measurement": "Net production of TRP metabolites in media samples: KYN", "setting": "CCRF-SB (B-ALL)", "value": "93.56 ± 90.1"},
      {"measurement": "Net production of TRP metabolites in media samples: QUIN", "setting": "CCRF-SB (B-ALL)", "value": "−47.16 ± 28.1"},
      {"measurement": "Net production of TRP metabolites in media samples: 3-HK", "setting": "KARPAS231 (B-ALL)", "value": "5.48 ± 2.1"},
      {"measurement": "Net production of TRP metabolites in media samples: HAA", "setting": "KARPAS231 (B-ALL)", "value": "30.76 ± 4.2"},
      {"measurement": "Net production of TRP metabolites in media samples: KA", "setting": "KARPAS231 (B-ALL)", "value": "−9.3 ± 5.1"},
      {"measurement": "Net production of TRP metabolites in media samples: KYN", "setting": "KARPAS231 (B-ALL)", "value": "200.48 ± 77.6"},
      {"measurement": "Net production of TRP metabolites in media samples: QUIN", "setting": "KARPAS231 (B-ALL)", "value": "−42.74 ± 33.3"},
      {"measurement": "Net production of TRP metabolites in media samples: 3-HK", "setting": "RS4; 11 (B-ALL)", "value": "−1.96 ± 1.6"},
      {"measurement": "Net production of TRP metabolites in media samples: KA", "setting": "RS4; 11 (B-ALL)", "value": "−6.3 ± 2.3"},
      {"measurement": "Net production of TRP metabolites in media samples: KYN", "setting": "RS4; 11 (B-ALL)", "value": "−14 ± 22.7"},
      {"measurement": "Net production of TRP metabolites in media samples: QUIN", "setting": "RS4; 11 (B-ALL)", "value": "40.46 ± 24^"},
      {"measurement": "Net production of TRP metabolites in media samples: 3-HK", "setting": "SUP-B15 (B-ALL)", "value": "19.38 ± 16.3"},
      {"measurement": "Net production of TRP metabolites in media samples: HAA", "setting": "SUP-B15 (B-ALL)", "value": "7.32 ± 1.1"},
      {"measurement": "Net production of TRP metabolites in media samples: KA", "setting": "SUP-B15 (B-ALL)", "value": "−10.36 ± 4.4"},
      {"measurement": "Net production of TRP metabolites in media samples: KYN", "setting": "SUP-B15 (B-ALL)", "value": "292.4 ± 186.6"},
      {"measurement": "Net production of TRP metabolites in media samples: QUIN", "setting": "SUP-B15 (B-ALL)", "value": "−79.6 ± 31.2"}
    ]}
  ]
}
